Usually pIC50 stands for the negative decadic logarithm of the IC50, by convention in mol/L. Broadly, the logP is the decadic logarithm of the partition coefficient of the neutral form, usually between octanol and water. A higher logP goes with higher lipophilicity.

The test system of data set [1] is Plasmodium falciparum. The data set is described as follows: Antimalarial activity against chloroquine-sensitive Plasmodium falciparum 3D7. In kind it is functional, organism-based.
The nature of data set [2]: Biodistribution in cannulated Wistar rat bile assessed as [3H]labeled drug level at 54 umol/kg, iv after 5 hrs. The class given is ADME, organism-based. To be noted: in vivo.
Data set [3] is described as follows: Biodistribution in cannulated Wistar rat urine assessed as [3H]labeled drug level at 54 umol/kg, iv after 5 hrs. The class given is ADME, organism-based. The conditions noted are these: in vivo.
Data set [4] can be described thus: Drug metabolism in cannulated Wistar rat assessed as biliary excretion of [3H]labeled drug level at 54 umol/kg, iv after 5 hrs. The class given is ADME, organism-based, Bile. The conditions noted are these: in vivo.
Data set [5] can be described thus: Drug metabolism in cannulated Wistar rat assessed as urinary excretion of [3H]labeled drug level at 54 umol/kg, iv after 5 hrs. In kind it is ADME, organism-based, Urine. To be noted: in vivo.
Data set [6] can be described thus: Partition coefficient, log P of the compound. The class given is physicochemical. To be noted: octanol/water.
The next data set deals with Kidney. Nature of the data set: Biodistribution in Wistar rat kidney assessed as [3H]labeled drug level at 54 umol/kg, iv after 24 hrs. In kind it is ADME, organism-based. The conditions noted are these: in vivo.
The test system of data set [7] is Rattus norvegicus. The data set is described as follows: Biodistribution in Wistar rat assessed as remaining [3H]labeled drug level at 54 umol/kg, iv after 24 hrs. The class given is ADME, organism-based. To be noted: in vivo.
Data set [8] deals with Rattus norvegicus. Nature of the data set: Metabolic stability in Wistar rat assessed as 2-[5-(7-Chloro-quinolin-4-ylamino)-2-fluoro-benzylamino]-2-methyl-propionic acids level at 54 umol/kg, iv administered as [3H]labeled drug after 5 hrs. In kind it is ADME, organism-based. The conditions noted are these: in vivo.
Data set [9] concerns the target T1, Cytochrome P450 3A4 (Homo sapiens, UniProt P08684). The data set is described as follows: Inhibition of human CYP3A4 using PPR substrate. In kind it is ADME.
In another data set the target is Cytochrome P450 2D6 (Homo sapiens, UniProt P10635). The data set is described as follows: Inhibition of human CYP2D6. In kind it is ADME.
A further data set addresses Cytochrome P450 2C19 (Homo sapiens, UniProt P33261). Nature of the data set: Inhibition of human CYP2C19. In kind it is ADME.
In another data set the test system is Mus musculus. Nature of the data set: Toxicity in po dosed mouse assessed as maximal nonlethal dose administered as single dose. The class given is organism-based. The conditions noted are these: in vivo.
Data set [10] in a line: Toxicity in po dosed mouse assessed as drug level causing no observed adverse effects administered as once daily for 4 days. In kind it is organism-based. The conditions noted are these: in vivo, read-out: Activity.
The target of data set [11] is T1, Cytochrome P450 3A4. Nature of the data set: Inhibition of human CYP3A4 using DEF substrate.
The subject of data set [12] is Plasmodium falciparum. The data set is described as follows: Antimalarial activity against chloroquine-resistant Plasmodium falciparum K1.

Each structure is given as a SMILES string. pIC50: −log10 of the molar value.

T1 sequence (P08684 whole entry): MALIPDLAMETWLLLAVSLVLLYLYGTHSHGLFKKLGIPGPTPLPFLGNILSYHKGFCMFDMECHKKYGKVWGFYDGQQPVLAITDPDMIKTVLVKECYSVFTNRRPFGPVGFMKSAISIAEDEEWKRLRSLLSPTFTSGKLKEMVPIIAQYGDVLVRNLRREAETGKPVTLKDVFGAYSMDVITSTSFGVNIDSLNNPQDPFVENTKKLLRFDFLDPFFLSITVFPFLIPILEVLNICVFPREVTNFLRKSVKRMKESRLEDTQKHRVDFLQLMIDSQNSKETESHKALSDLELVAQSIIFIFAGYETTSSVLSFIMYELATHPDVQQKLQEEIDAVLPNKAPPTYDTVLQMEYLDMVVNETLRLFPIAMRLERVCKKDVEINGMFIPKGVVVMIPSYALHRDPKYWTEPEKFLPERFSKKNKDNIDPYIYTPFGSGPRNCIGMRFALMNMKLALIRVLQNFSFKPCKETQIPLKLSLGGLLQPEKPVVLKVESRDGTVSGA
Cytochrome P450 2D6, sequence (P10635 whole entry): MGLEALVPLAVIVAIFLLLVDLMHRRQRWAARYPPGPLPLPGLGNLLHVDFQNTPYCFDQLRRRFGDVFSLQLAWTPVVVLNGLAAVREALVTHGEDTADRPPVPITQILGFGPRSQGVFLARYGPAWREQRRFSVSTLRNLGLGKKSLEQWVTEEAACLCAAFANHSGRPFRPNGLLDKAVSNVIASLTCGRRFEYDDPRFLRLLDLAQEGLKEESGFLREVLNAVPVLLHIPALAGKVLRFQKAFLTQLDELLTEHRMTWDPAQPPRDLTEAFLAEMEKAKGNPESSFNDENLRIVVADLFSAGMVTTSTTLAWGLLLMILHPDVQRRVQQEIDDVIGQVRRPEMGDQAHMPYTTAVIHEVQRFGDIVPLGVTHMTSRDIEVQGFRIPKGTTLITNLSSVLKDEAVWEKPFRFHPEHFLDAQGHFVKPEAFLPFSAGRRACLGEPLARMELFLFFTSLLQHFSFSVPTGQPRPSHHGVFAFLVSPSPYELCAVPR
Cytochrome P450 2C19, sequence (P33261 whole entry): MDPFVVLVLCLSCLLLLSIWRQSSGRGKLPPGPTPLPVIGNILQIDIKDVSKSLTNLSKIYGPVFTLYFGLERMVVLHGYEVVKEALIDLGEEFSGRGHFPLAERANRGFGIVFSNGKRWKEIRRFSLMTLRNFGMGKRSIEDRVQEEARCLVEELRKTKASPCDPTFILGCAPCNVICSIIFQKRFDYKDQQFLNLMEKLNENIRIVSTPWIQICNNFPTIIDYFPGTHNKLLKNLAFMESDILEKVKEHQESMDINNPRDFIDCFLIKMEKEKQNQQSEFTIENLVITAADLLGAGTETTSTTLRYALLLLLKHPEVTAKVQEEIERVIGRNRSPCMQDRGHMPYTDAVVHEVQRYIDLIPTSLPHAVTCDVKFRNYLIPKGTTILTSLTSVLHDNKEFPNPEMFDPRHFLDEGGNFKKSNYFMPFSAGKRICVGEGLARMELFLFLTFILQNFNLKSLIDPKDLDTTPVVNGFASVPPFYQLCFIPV

Take `CC(C)(C)NCc1cc(Nc2ccnc3cc(Cl)ccc23)ccc1F`: the pIC50 is 7.92 in the data set on Plasmodium falciparum [1]; 6.52 against Cytochrome P450 2D6; 4.19 at Cytochrome P450 2C19; less than 4.00 against Cytochrome P450 3A4 [11]; 7.66 in the data set on Plasmodium falciparum [12]. Also, the Activity worked out at 9.16 %ID in data set [2]; 8.06 %ID in data set [3]; 9.16% in [4]; 8.06% in data set [5]; 14.76% with Rattus norvegicus [7]; 14.22% in the data set with Rattus norvegicus [8]. Besides, in the data set with Mus musculus, the Activity is 610 mg/kg. Moreover, the logP in data set [6] is 5.15. Besides, the Drug uptake with Kidney worked out at 1.48 %ID. Further, the IC50 result on Cytochrome P450 3A4 [9] is recorded as “Active”. Besides, the NOAEL at 96 h in data set [10] stood at 100 mg/kg.

Source of the values: ChEMBL document CHEMBL1153384, “Synthesis, antimalarial activity, and preclinical pharmacology of a novel series of 4'-fluoro and 4'-chloro analogues of amodiaquine. Identification of a suitable "back-up" compound for N-tert-butyl isoquine” (J Med Chem, 2009).
